The text below walks through data of PMC9927415, “Tyrosine Kinase Inhibitors Display Potent Activity against Cryptosporidium parvum” (Microbiology Spectrum, 2022).

In general, inhibition refers to how much of the control response was suppressed.

SMILES strings stand for the structures.

Test in all cases: KINOMEscan competitive binding, whole panel
The target in assay [1] is T1, panel of 203 kinases (Homo sapiens, UniProt O43293).
T1 construct: purchased DiscoverX (KINOMEscan)
The conditions noted are these: 10 µM, n=1; kinase DAPK3; read-out: Percent inhibition DAPK3. In a few lines: (§1)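 Read-out is the amount of kinase still captured on an immobilized ATP-site probe after exposure to test compound, expressed as percentage inhibition.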

The target of assay [2] is T2, panel of 203 kinases (Homo sapiens, UniProt P14616).
T2 construct: purchased DiscoverX (KINOMEscan)
The conditions noted are these: 10 µM, n=1; kinase INSRR; read-out: Percent inhibition INSRR. In a few lines: as §1

Assay [3] deals with T3, panel of 203 kinases (Homo sapiens, UniProt P29320).
T3 construct: purchased DiscoverX (KINOMEscan)
T3 sequence (P29320 21-983): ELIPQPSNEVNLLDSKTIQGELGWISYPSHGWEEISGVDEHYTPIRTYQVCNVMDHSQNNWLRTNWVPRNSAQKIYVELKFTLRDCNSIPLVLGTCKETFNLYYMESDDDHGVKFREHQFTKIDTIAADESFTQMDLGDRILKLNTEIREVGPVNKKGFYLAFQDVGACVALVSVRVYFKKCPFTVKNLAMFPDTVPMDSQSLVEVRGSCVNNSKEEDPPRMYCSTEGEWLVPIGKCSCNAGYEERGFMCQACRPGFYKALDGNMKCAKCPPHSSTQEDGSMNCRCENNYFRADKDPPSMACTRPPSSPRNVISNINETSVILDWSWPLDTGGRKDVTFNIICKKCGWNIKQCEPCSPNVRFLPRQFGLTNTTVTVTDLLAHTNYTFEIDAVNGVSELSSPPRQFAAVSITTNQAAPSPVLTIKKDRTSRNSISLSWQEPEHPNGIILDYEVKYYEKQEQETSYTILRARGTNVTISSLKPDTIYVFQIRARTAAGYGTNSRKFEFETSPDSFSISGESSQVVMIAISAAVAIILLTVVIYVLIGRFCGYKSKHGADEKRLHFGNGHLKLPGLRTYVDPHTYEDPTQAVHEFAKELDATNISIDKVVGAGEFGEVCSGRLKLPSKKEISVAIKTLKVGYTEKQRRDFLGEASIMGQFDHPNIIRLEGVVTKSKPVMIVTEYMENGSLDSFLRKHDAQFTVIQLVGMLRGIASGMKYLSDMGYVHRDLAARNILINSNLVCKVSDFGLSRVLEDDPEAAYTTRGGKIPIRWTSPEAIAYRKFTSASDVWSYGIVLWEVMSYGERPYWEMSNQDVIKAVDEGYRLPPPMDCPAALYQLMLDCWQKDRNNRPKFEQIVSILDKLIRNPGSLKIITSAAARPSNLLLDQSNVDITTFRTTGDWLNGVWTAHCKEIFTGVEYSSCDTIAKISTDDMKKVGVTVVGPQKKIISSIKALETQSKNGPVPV
The conditions noted are these: 10 µM, n=1; kinase EPHA3; read-out: Percent inhibition EPHA3. In a few lines: as §1

The target of assay [4] is T4, panel of 203 kinases (Homo sapiens, UniProt Q9P2K8, S808G).
T4 construct: purchased DiscoverX (KINOMEscan)
The settings on record: 10 µM, n=1; kinase GCN2(Kin.Dom.2,S808G); read-out: Percent inhibition GCN2(Kin.Dom.2,S808G). In a few lines: as §1

Assay [5] concerns the target T5, panel of 203 kinases (Homo sapiens, UniProt Q9H1R3).
T5 construct: purchased DiscoverX (KINOMEscan)
The settings on record: 10 µM, n=1; kinase MYLK2; read-out: Percent inhibition MYLK2. In a few lines: as §1

The target of assay [6] is T6, panel of 203 kinases (Homo sapiens, UniProt P54764).
T6 construct: purchased DiscoverX (KINOMEscan)
The settings on record: 10 µM, n=1; kinase EPHA4; read-out: Percent inhibition EPHA4. In a few lines:
as §1

Assay [7] concerns the target T7, panel of 203 kinases (Homo sapiens, UniProt Q8IWQ3).
T7 construct: purchased DiscoverX (KINOMEscan)
T7 sequence (Q8IWQ3 1-736): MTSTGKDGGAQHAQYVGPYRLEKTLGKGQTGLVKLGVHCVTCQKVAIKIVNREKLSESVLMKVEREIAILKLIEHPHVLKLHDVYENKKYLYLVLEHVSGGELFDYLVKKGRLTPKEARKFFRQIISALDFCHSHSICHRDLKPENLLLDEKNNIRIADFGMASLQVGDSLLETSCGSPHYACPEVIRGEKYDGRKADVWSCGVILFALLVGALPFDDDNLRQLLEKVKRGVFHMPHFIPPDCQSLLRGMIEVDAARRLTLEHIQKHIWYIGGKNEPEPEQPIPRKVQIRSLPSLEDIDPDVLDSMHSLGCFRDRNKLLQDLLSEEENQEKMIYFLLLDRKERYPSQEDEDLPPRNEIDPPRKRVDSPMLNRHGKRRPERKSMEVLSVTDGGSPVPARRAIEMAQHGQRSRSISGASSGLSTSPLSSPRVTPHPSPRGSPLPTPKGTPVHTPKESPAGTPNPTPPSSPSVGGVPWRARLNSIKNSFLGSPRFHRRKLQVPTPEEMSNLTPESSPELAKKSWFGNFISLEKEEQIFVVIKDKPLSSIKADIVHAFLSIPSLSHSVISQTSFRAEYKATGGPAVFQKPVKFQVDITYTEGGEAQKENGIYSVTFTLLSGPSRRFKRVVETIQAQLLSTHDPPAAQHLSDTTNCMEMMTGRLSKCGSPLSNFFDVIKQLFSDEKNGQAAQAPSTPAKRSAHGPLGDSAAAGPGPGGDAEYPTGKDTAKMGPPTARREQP
The conditions noted are these: 10 µM, n=1; kinase BRSK2; read-out: Percent inhibition BRSK2. In a few lines:
as §1

The target of assay [8] is T8, panel of 203 kinases (Homo sapiens, UniProt Q96GD4).
T8 construct: purchased DiscoverX (KINOMEscan)
The settings on record: 10 µM, n=1; kinase AURKB; read-out: Percent inhibition AURKB. In a few lines:
as §1

Assay [9] concerns the target T9, panel of 203 kinases (Homo sapiens, UniProt P04626).
T9 construct: purchased DiscoverX (KINOMEscan)
The conditions noted are these: 10 µM, n=1; kinase ERBB2; read-out: Percent inhibition ERBB2. In short, it runs like this: as §1

Assay [10] has as its target T10, panel of 203 kinases (Homo sapiens, UniProt P27361).
T10 construct: purchased DiscoverX (KINOMEscan)
The conditions noted are these: 10 µM, n=1; kinase ERK1; read-out: Percent inhibition ERK1. In a few lines:
as §1

The target in assay [11] is T11, panel of 203 kinases (Homo sapiens, UniProt Q16539).
T11 construct: purchased DiscoverX (KINOMEscan)
The settings on record: 10 µM, n=1; kinase p38-alpha; read-out: Percent inhibition p38-alpha. In short, it runs like this: as §1

Assay [12] addresses T12, panel of 203 kinases (Homo sapiens, UniProt Q06187).
T12 construct: purchased DiscoverX (KINOMEscan)
The settings on record: 10 µM, n=1; kinase BTK; read-out: Percent inhibition BTK. In a few lines: as §1

The target in assay [13] is T13, panel of 203 kinases (Homo sapiens, UniProt P54646).
T13 construct: purchased DiscoverX (KINOMEscan)
The settings on record: 10 µM, n=1; kinase AMPK-alpha2; read-out: Percent inhibition AMPK-alpha2. In short, it runs like this:
as §1

T12 sequence (Q06187 whole entry): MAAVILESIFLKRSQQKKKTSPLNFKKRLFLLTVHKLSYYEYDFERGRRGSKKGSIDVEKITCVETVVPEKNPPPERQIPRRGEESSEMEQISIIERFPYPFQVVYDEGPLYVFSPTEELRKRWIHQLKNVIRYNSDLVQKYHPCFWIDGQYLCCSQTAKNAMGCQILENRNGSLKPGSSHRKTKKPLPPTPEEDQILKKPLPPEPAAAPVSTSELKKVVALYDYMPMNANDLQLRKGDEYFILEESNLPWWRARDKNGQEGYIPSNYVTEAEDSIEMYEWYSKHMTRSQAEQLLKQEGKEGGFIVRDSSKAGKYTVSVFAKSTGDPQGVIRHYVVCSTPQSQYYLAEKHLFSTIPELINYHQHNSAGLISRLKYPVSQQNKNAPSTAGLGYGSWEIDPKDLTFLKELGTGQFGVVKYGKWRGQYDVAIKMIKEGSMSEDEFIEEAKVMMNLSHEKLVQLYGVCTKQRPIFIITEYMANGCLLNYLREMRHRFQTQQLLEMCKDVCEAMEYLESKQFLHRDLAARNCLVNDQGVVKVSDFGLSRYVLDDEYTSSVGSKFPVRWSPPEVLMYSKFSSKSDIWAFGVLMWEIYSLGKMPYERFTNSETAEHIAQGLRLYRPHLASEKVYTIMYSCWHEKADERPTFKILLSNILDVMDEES
T5 sequence (Q9H1R3 whole entry): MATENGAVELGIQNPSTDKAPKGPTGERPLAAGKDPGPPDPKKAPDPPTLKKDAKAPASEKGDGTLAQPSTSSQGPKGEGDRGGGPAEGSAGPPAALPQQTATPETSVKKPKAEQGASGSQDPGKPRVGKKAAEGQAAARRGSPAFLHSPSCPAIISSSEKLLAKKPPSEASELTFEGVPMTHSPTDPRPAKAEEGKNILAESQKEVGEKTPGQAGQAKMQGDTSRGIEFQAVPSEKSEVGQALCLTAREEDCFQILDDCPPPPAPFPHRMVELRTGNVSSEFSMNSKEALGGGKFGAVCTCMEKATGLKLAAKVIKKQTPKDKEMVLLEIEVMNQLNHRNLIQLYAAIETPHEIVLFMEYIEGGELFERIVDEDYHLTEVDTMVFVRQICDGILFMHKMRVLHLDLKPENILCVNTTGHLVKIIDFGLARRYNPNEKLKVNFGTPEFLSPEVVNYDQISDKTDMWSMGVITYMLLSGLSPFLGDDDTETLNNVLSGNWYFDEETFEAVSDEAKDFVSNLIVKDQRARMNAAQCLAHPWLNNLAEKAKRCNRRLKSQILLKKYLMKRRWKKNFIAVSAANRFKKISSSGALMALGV
T10 sequence (P27361 whole entry): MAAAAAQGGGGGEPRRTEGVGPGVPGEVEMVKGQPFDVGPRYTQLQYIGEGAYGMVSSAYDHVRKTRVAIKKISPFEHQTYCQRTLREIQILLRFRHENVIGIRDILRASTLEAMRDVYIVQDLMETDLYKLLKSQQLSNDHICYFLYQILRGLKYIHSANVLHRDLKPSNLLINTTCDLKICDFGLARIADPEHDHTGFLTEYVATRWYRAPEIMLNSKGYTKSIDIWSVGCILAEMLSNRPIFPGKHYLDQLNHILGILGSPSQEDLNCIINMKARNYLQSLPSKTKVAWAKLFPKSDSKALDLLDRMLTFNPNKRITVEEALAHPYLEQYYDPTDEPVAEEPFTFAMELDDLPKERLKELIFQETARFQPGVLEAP
T1 sequence (O43293 whole entry): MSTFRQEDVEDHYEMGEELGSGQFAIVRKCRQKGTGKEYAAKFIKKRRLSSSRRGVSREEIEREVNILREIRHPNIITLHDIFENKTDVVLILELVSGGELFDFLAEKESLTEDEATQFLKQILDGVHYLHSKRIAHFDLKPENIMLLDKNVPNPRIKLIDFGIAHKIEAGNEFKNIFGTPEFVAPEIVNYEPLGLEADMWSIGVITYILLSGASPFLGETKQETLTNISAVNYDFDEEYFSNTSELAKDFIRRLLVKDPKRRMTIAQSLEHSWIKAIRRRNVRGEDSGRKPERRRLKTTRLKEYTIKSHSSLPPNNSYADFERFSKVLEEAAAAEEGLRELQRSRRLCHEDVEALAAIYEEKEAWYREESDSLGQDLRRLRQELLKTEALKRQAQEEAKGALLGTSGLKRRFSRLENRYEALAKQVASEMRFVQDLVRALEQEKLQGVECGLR
T13 sequence (P54646 whole entry): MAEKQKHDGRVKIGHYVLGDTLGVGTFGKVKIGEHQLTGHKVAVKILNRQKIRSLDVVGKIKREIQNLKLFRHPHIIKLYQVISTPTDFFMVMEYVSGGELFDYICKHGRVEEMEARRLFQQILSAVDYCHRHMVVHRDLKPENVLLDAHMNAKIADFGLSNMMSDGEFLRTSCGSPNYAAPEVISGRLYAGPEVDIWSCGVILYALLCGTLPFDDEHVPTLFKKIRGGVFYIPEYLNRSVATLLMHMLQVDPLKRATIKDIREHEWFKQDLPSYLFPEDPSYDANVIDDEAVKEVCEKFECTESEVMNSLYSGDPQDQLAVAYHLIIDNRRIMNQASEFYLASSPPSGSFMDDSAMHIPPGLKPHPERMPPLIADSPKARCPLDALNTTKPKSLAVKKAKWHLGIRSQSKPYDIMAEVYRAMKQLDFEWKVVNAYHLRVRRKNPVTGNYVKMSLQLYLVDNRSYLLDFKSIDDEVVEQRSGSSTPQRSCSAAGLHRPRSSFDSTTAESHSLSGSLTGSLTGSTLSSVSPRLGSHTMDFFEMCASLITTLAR
T4 sequence (Q9P2K8 whole entry S808G): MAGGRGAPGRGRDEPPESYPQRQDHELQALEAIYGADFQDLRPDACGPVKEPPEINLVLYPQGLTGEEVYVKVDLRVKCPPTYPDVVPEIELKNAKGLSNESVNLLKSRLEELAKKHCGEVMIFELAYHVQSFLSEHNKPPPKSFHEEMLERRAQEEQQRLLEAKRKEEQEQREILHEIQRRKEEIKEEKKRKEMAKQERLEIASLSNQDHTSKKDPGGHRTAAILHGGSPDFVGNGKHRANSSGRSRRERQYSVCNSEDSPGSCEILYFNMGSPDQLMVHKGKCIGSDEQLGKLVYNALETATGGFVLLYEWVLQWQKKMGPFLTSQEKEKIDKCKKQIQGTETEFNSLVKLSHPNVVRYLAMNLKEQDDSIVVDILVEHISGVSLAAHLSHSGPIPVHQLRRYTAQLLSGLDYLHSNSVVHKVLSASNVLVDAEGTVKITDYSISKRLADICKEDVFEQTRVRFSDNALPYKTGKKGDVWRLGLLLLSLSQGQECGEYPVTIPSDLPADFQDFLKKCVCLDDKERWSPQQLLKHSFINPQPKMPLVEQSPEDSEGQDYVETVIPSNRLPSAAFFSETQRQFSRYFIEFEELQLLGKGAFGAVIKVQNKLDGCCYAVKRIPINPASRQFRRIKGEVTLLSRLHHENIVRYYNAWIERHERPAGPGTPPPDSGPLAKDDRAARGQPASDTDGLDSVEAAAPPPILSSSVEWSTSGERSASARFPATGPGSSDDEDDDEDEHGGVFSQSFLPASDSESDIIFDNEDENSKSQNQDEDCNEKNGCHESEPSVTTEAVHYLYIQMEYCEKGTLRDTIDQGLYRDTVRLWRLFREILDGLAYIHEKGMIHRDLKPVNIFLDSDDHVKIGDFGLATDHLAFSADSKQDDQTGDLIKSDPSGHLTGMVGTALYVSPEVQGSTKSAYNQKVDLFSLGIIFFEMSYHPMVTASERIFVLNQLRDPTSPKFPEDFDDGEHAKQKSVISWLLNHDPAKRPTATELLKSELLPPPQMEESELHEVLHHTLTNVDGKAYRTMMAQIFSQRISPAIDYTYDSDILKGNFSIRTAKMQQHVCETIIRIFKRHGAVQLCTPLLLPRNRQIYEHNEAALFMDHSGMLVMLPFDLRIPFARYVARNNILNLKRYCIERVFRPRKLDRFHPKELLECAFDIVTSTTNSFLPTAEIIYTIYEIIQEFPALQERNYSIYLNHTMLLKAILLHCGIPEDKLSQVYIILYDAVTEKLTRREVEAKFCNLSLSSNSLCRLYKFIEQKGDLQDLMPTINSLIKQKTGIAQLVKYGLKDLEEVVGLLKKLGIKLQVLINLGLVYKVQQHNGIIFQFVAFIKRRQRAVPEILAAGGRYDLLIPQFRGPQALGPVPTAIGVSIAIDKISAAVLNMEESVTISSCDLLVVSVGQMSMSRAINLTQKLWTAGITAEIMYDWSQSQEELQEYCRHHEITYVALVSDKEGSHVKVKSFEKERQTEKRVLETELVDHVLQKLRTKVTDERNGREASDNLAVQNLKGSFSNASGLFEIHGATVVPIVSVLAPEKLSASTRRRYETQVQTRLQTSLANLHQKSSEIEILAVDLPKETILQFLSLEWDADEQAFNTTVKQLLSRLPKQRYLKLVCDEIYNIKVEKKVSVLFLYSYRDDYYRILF
T8 sequence (Q96GD4 whole entry): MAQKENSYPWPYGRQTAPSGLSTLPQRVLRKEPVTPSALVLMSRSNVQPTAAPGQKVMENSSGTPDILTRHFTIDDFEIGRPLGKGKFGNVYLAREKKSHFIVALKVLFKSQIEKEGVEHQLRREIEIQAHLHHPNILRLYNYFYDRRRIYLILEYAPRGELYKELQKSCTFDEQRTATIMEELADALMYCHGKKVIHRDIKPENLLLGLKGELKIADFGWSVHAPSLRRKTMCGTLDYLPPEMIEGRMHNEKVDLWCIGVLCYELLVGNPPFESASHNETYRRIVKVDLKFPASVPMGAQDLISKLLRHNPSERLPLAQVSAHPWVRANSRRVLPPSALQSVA
T11 sequence (Q16539 whole entry): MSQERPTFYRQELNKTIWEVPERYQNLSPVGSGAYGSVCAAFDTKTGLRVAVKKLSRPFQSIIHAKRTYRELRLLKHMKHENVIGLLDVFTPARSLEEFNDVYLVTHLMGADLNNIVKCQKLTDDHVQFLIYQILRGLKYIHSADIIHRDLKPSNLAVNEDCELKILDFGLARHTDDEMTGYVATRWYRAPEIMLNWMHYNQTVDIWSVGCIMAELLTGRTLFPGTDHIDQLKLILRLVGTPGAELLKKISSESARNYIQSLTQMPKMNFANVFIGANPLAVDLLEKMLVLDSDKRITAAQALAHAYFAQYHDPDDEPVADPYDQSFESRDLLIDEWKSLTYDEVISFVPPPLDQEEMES

Regarding `CN1CCN(c2ccc(Nc3nccc(-c4cnn5ncccc45)n3)cc2C#N)CC1` [Compound 1], the inhibition at 10 µM worked out at 98.5% in [1]; 99.2% in [2]; 98% in [3]; 99.7% in assay [4]; 96.8% in assay [5]; 0% in assay [6]. For the same compound, the inhibition at 10 µM in assay [7] was determined as 0%; in assay [8], 88.5%; in assay [9] it was 0%; in assay [10], 98.5%; in [11], 0%; in assay [12], 0%. The inhibition at 10 µM in [13] amounted to 81.8%.
For the compound `COc1ccc(Nc2nccc(-c3cnn4ncccc34)n2)cc1` [Compound 2], the inhibition at 10 µM stood at 0% in assay [1]; 87.2% in assay [2]; 85% in assay [3]; 98.2% in assay [4]; 80.5% in assay [5]; 0% in assay [6]. For the same compound, the inhibition at 10 µM in [7] was 0%; in assay [8], 93.3%; in [9], 0%; in assay [10], 98.5%; in assay [11] it was 0%; in assay [12], 0%. The inhibition at 10 µM in assay [13] came to 0%.
Turning to `Cc1ccc(O)cc1Nc1ccnc(Nc2cccc(C(N)=O)c2)n1` [Compound 3], the inhibition at 10 µM was determined as 0% in assay [1]; 0% in assay [2]; 100% in [3]; 0% in [4]; 83.2% in assay [5]; 100% in assay [6]. In addition, the inhibition at 10 µM in assay [7] was found to be 0%; in assay [8], 82.8%; in assay [9], 0%; in assay [10], 67.8%; in assay [11], 77.8%; in assay [12], 96%. The inhibition at 10 µM in assay [13] is 0%.
With `Cc1ccc(O)cc1N(C)c1ccnc(Nc2cccc(S(N)(=O)=O)c2)n1` [Compound 4], the inhibition at 10 µM in assay [1] was determined as 0%; in [2], 0%; in assay [3], 100%; in assay [4] it was 0%; in [5] it was 0%; in assay [6], 100%. The inhibition at 10 µM was determined as 0% in assay [7]; 79.5% in assay [8]; 0% in assay [9]; 98.1% in assay [10]; 99.1% in [11]; 95% in assay [12]. For the same compound, in [13], the inhibition at 10 µM was determined as 0%.
For `Fc1cccc(COc2ccc(Nc3ncnc4c3CN(CCN3CCOCC3)CC4)cc2Cl)c1` [Compound 6], the inhibition at 10 µM in assay [1], in assay [2], in assay [3], in [4], in assay [5] and in assay [6] was 0% in each case. In addition, the inhibition at 10 µM in [7] came to 0%; in [8], 0%; in assay [9], 86.5%; in assay [10], 0%; in assay [11], 0%; in assay [12] it was 0%. In assay [13], the inhibition at 10 µM was 0%.
Regarding `COc1cc(Nc2nccc(-c3sc(N)nc3-c3cccc(NC(=O)c4c(F)cccc4F)c3)n2)cc(OC)c1OC` [Compound 7], the inhibition at 10 µM in [1] came out at 0%; in [2], 97.8%; in assay [3], 99.7%; in [4], 99.9%; in assay [5], 97%; in [6], 99.8%. Also, the inhibition at 10 µM in assay [7] was determined as 0%; in [8], 100%; in assay [9], 100%; in assay [10], 99.8%; in assay [11], 98.5%; in assay [12], 100%. In addition, the inhibition at 10 µM in [13] was determined as 100%.
On to `C[C@@H](Oc1cc(-c2cnc3ccccn23)sc1C(N)=O)c1ccccc1Cl` [Compound 8], for which the inhibition at 10 µM in assay [1] amounted to 89.3%; in [2], 0%; in assay [3] it was 0%; in assay [4], 86.6%; in assay [5], 66.5%; in [6] it was 0%. In addition, the inhibition at 10 µM in assay [7] came to 91.2%; in assay [8], 87.3%; in assay [9], 0%; in assay [10], 83.2%; in [11] it was 0%; in assay [12], 0%. In [13], the inhibition at 10 µM stood at 0%.
For the compound `c1ccc(COc2cccc(-c3ccnc4[nH]ccc34)c2)cc1` [Compound 9], the inhibition at 10 µM in assay [1], in [2], in assay [3], in assay [4], in [5] and in assay [6] was 0% throughout. Further, the inhibition at 10 µM in assay [7], in [8], in assay [9], in [10], in [11] and in [12] was 0% in each case. In assay [13], the inhibition at 10 µM is 0%.
